Where “and” joins values, the source holds several entries; their conditions need not be identical. Equal values may be shown once. Toxic doses and inconclusive results are not listed.
Tested on: BDF1 mice, P388 leukemia ip, median survival T/C
Assay: NCI In Vivo Anticancer Drug Screen. Data for tumor model P388 Leukemia (intraperitoneal) in B6D2F1 (BDF1) mice
Conditions: endpoint: median survival time, higher = longer survival
How it was run: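 Transplantable tumour in mice; compound vs vehicle dosing; survival scored; ratio of treated to control reported.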

[1] = dose: 100.0 mg/kg/injection, schedule: Q04DX003 (ip), vehicle: Klucel (hydroxypropylcellulose) (HPC)
[2] = dose: 200.0 mg/kg/injection, schedule: Q04DX003 (ip), vehicle: Klucel (hydroxypropylcellulose) (HPC)
[3] = dose: 100.0 mg/kg/injection, schedule: Q04DX003 (ip), vehicle: saline with Tween-80
[4] = dose: 200.0 mg/kg/injection, schedule: Q04DX003 (ip), vehicle: saline with Tween-80
[5] = dose: 400.0 mg/kg/injection, schedule: Q04DX003 (ip), vehicle: saline with Tween-80
[6] = dose: 100.0 mg/kg/injection, schedule: Q01DX009 (ip), vehicle: Klucel (hydroxypropylcellulose) (HPC)
[7] = dose: 25.0 mg/kg/injection, schedule: Q01DX009 (ip), vehicle: saline
[8] = dose: 100.0 mg/kg/injection, schedule: Q04DX003 (ip), vehicle: saline
[9] = dose: 200.0 mg/kg/injection, schedule: Q04DX003 (ip), vehicle: saline
[10] = dose: 400.0 mg/kg/injection, schedule: Q04DX003 (ip), vehicle: saline
[11] = dose: 50.0 mg/kg/injection, schedule: Q04DX003 (ip), vehicle: saline with Tween-80

SMILES: COc1c(Br)cc(Br)cc1Br
- T/C [1]: 108 % of control
- T/C [2]: 100 % of control
- T/C (dose: 400.0 mg/kg/injection, schedule: Q04DX003 (ip), vehicle: Klucel (hydroxypropylcellulose) (HPC)): 100 % of control

SMILES: C=C1CCC2(C(C)C)CC12 (stereo unspecified)
- T/C (dose: 100.0 mg/kg/injection, schedule: Q01DX001 (ip), vehicle: saline sonified): 109 % of control
- T/C (dose: 200.0 mg/kg/injection, schedule: Q01DX001 (ip), vehicle: saline sonified): 104 % of control
- T/C (dose: 400.0 mg/kg/injection, schedule: Q01DX001 (ip), vehicle: saline sonified): 104 % of control

SMILES: CC(C)(C)c1ccc(S(=O)[O][Sn]([CH3])([CH3])[O]S(=O)c2ccc(C(C)(C)C)cc2)cc1 (stereo unspecified)
- T/C (dose: 12.5 mg/kg/injection, schedule: Q01DX001 (ip), vehicle: Klucel (hydroxypropylcellulose) (HPC)): 110 % of control
- T/C (dose: 25.0 mg/kg/injection, schedule: Q01DX001 (ip), vehicle: Klucel (hydroxypropylcellulose) (HPC)): 113 % of control
- T/C (dose: 50.0 mg/kg/injection, schedule: Q01DX001 (ip), vehicle: Klucel (hydroxypropylcellulose) (HPC)): 116 % of control

SMILES: O=C(OC12CCCCC1CCCC2)c1ccc([N+](=O)[O-])cc1 (stereo unspecified)
- T/C [3]: 110 % of control
- T/C [4]: 100 % of control
- T/C [5]: 100 % of control

SMILES: CN1CC(=O)N=C1N
- T/C [6]: 90 % of control
- T/C (dose: 200.0 mg/kg/injection, schedule: Q01DX009 (ip), vehicle: Klucel (hydroxypropylcellulose) (HPC)): 95 % of control
- T/C (dose: 400.0 mg/kg/injection, schedule: Q01DX009 (ip), vehicle: Klucel (hydroxypropylcellulose) (HPC)): 100 % of control

SMILES: CS(=O)(=O)N(CC(=O)O)Cc1ccccc1
- T/C (dose: 50.0 mg/kg/injection, schedule: Q04DX003 (ip), vehicle: sodium bicarbonate): 107 % of control
- T/C (dose: 100.0 mg/kg/injection, schedule: Q04DX003 (ip), vehicle: sodium bicarbonate): 119 % of control
- T/C (dose: 200.0 mg/kg/injection, schedule: Q04DX003 (ip), vehicle: sodium bicarbonate): 103 % of control
- T/C (dose: 400.0 mg/kg/injection, schedule: Q04DX003 (ip), vehicle: sodium bicarbonate): 110 % of control

SMILES: COc1ccc(/C=C/C(C)=O)cc1OC
- T/C [7]: 94 % of control
- T/C (dose: 25.0 mg/kg/injection, schedule: Q04DX003 (ip), vehicle: saline): 107 % of control
- T/C (dose: 50.0 mg/kg/injection, schedule: Q01DX009 (ip), vehicle: saline): 99 % of control
- T/C (dose: 50.0 mg/kg/injection, schedule: Q04DX003 (ip), vehicle: saline): 106 % of control
- T/C (dose: 100.0 mg/kg/injection, schedule: Q01DX009 (ip), vehicle: saline): 110 % of control
- T/C [8]: 105 % of control
- T/C (dose: 200.0 mg/kg/injection, schedule: Q01DX009 (ip), vehicle: saline): 103 % of control
- T/C [9]: 100 % of control
- T/C (dose: 400.0 mg/kg/injection, schedule: Q01DX009 (ip), vehicle: saline): 108 % of control
- T/C [10]: 107 % of control

SMILES: CCC[CH2][Sn]1([CH2]CCC)[O]OC(c2ccc(OC)cc2)[O]1 (stereo unspecified)
- T/C (dose: 3.12 mg/kg/injection, schedule: Q01DX009 (sc), vehicle: olive oil, sesame oil, peanut oil): 112 % of control
- T/C (dose: 6.25 mg/kg/injection, schedule: Q01DX009 (sc), vehicle: olive oil, sesame oil, peanut oil): 99 % of control

SMILES: CCC1=C(C[C@H]2NCCc3cc(OC)c(OC)cc32)C[C@H]2c3cc(OC)c(OC)cc3CCN2C1
- T/C (dose: 4.0 mg/kg/injection, schedule: Q04DX003 (ip), vehicle: saline): 110 % of control
- T/C (dose: 6.7 mg/kg/injection, schedule: Q04DX003 (ip), vehicle: saline with Tween-80): 113 % of control
- T/C (dose: 15.0 mg/kg/injection, schedule: Q04DX003 (ip), vehicle: saline with Tween-80): 159 % of control
- T/C (dose: 16.0 mg/kg/injection, schedule: Q04DX003 (ip), vehicle: saline): 158 % of control
- T/C (dose: 22.0 mg/kg/injection, schedule: Q04DX003 (ip), vehicle: Klucel (hydroxypropylcellulose) (HPC)): 165 % of control
- T/C (dose: 32.0 mg/kg/injection, schedule: Q04DX003 (ip), vehicle: saline): 174 % of control
- T/C (dose: 33.0 mg/kg/injection, schedule: Q04DX003 (ip), vehicle: Klucel (hydroxypropylcellulose) (HPC)): 165 % of control
- T/C (dose: 33.0 mg/kg/injection, schedule: Q04DX003 (ip), vehicle: saline with Tween-80): 177 % of control
- T/C (dose: 33.0 mg/kg/injection, schedule: Q04DX003 (ip), vehicle: saline): 154 % of control
- T/C [11]: 195 % of control
- T/C (dose: 75.0 mg/kg/injection, schedule: Q04DX003 (ip), vehicle: saline): 90 % of control

SMILES: O=c1[nH]c(=O)n(C2CC(O)C(CO)O2)cc1C(F)(F)F (stereo unspecified)
- T/C (dose: 62.5 mg/kg/injection, schedule: Q01DX009 (ip), vehicle: Klucel (hydroxypropylcellulose) (HPC)): 104 % of control
- T/C (dose: 125.0 mg/kg/injection, schedule: Q01DX009 (ip), vehicle: Klucel (hydroxypropylcellulose) (HPC)): 118 % of control
- T/C (dose: 250.0 mg/kg/injection, schedule: Q01DX009 (ip), vehicle: Klucel (hydroxypropylcellulose) (HPC)): 122 % of control
- T/C (dose: 500.0 mg/kg/injection, schedule: Q01DX009 (ip), vehicle: Klucel (hydroxypropylcellulose) (HPC)): 90 % of control

SMILES: CCOC(=O)C(=O)C1CCNC1=O (stereo unspecified)
- T/C (dose: 12.5 mg/kg/injection, schedule: Q04DX003 (ip), vehicle: saline with Tween-80): 100 % of control
- T/C (dose: 25.0 mg/kg/injection, schedule: Q04DX003 (ip), vehicle: saline with Tween-80): 100 % of control
- T/C [11]: 100 % of control

SMILES: CC(C)=NNS(=O)(=O)c1ccc(C)cc1
- T/C (dose: 25.0 mg/kg/injection, schedule: Q04DX003 (ip), vehicle: Klucel (hydroxypropylcellulose) (HPC)): 106 % of control
- T/C (dose: 50.0 mg/kg/injection, schedule: Q04DX003 (ip), vehicle: Klucel (hydroxypropylcellulose) (HPC)): 106 % of control
- T/C [1]: 111 % of control
- T/C [2]: 111 % of control

SMILES: CC(=O)Nc1c([N+](=O)[O-])ccc(Cl)c1Cl
- T/C (dose: 25.0 mg/kg/injection, schedule: Q01DX009 (ip), vehicle: Klucel (hydroxypropylcellulose) (HPC)): 104 % of control
- T/C (dose: 50.0 mg/kg/injection, schedule: Q01DX009 (ip), vehicle: Klucel (hydroxypropylcellulose) (HPC)): 87 % of control
- T/C [6]: 100 % of control
- T/C [1]: 100 % of control

SMILES: C=C1C(=O)OC2CC(C)C3C4OC4C(O)C3(C)C(O)C12 (stereo unspecified)
- T/C (dose: 6.25 mg/kg/injection, schedule: Q01DX009 (ip), vehicle: saline): 100 % of control
- T/C (dose: 9.38 mg/kg/injection, schedule: Q01DX009 (ip), vehicle: saline): 111 % of control
- T/C (dose: 12.5 mg/kg/injection, schedule: Q01DX009 (ip), vehicle: saline): 100 % of control
- T/C (dose: 16.5 mg/kg/injection, schedule: Q01DX009 (ip), vehicle: saline): 101 % of control
- T/C (dose: 18.75 mg/kg/injection, schedule: Q01DX009 (ip), vehicle: saline): 120 % of control
- T/C [7]: 104 % of control and 108 % of control
- T/C (dose: 37.5 mg/kg/injection, schedule: Q01DX009 (ip), vehicle: saline): 112 % of control
- T/C (dose: 56.25 mg/kg/injection, schedule: Q01DX009 (ip), vehicle: saline): 110 % of control

SMILES: CC(=O)C1=CC(=O)NC(=O)C1C(=O)CC(C)C (stereo unspecified)
- T/C (dose: 1.56 mg/kg/injection, schedule: Q01DX009 (ip), vehicle: saline + alcohol): 115 % of control
- T/C (dose: 3.13 mg/kg/injection, schedule: Q01DX009 (ip), vehicle: saline + alcohol): 123 % of control
- T/C (dose: 6.25 mg/kg/injection, schedule: Q01DX009 (ip), vehicle: other): 118 % of control
- T/C (dose: 6.25 mg/kg/injection, schedule: Q01DX009 (ip), vehicle: saline + alcohol): 106 % of control

SMILES: CCOC(=O)N1C=Cn2c(cnc2C)C1OCC (stereo unspecified)
- T/C [8]: 102 % of control
- T/C [9]: 112 % of control
- T/C [10]: 116 % of control

SMILES: CC1C(=O)CCC2(C)CCC(C)(C)CC12 (stereo unspecified)
- T/C [3]: 109 % of control
- T/C [4]: 109 % of control
- T/C [5]: 95 % of control

SMILES: C[S+](C)N(c1ccc(Cl)cc1)C(C)(C)C
- T/C (dose: 25.0 mg/kg/injection, schedule: Q01DX001 (ip), vehicle: saline): 104 % of control
- T/C (dose: 50.0 mg/kg/injection, schedule: Q01DX001 (ip), vehicle: saline): 111 % of control

SMILES: CCCCC[C@H](O)/C=C/[C@H]1[C@H](O)CC(=O)[C@@H]1C/C=C\CCCC(=O)O
- T/C (dose: 50.0 mg/kg/injection, schedule: Q04DX002 (ip), vehicle: Klucel (hydroxypropylcellulose) (HPC)): 122 % of control
- T/C (dose: 100.0 mg/kg/injection, schedule: Q04DX002 (ip), vehicle: Klucel (hydroxypropylcellulose) (HPC)): 105 % of control
- T/C (dose: 200.0 mg/kg/injection, schedule: Q04DX002 (ip), vehicle: Klucel (hydroxypropylcellulose) (HPC)): 114 % of control
- T/C (dose: 400.0 mg/kg/injection, schedule: Q04DX002 (ip), vehicle: Klucel (hydroxypropylcellulose) (HPC)): 114 % of control

Source: PubChem BioAssay AID328 (DTP/NCI, 2004)
